Assay results: article PMC8881069, “Thio- and selenosemicarbazones as antiprotozoal agents against Trypanosoma cruzi and Trichomonas vaginalis” (Journal of Enzyme Inhibition and Medicinal Chemistry, 2022)

How the values were obtained:
[1] = test system: hydrogenosome membrane potential of T. vaginalis; assay: Hydrogenosomal membrane potential assay (JC-1); conditions: Figure 3; 4 h; 51 and 63 at 100 µM, MTZ 24 µM, CCCP 50 µM
[2] = test system: Trypanosoma cruzi CL-B5 (DTU TcVI) epimastigotes; assay: CL-B5 lacZ epimastigote susceptibility assay (CPRG); type: cell-based; conditions: T. cruzi CL-B5 lacZ epimastigotes, 72 h, mean ± SD, n = 3
L929 cells = assay: Unspecific cytotoxicity assay on L929 fibroblasts (resazurin); type: cell-based; conditions: mean ± SD, n = 3; for CC50 at 72 h: mouse; for CC50: 72 h
[3] = test system: Trypanosoma cruzi Y (DTU TcII) epimastigotes; assay: Y strain epimastigote susceptibility assay (resazurin); type: cell-based; conditions: Trypanosoma cruzi; T. cruzi Y strain epimastigotes, 48 h, mean ± SD, n = 3
J774 cells = assay: Unspecific cytotoxicity assay on J774 macrophages (resazurin); type: cell-based, mouse; conditions: mouse, mean ± SD, n = 3
Trichomonas vaginalis = assay: Trichomonacidal in vitro assay (resazurin); type: cell-based; conditions: isolate JH31A#4, 24 h, brackets: 95% confidence interval
Vero cells = assay: Unspecific cytotoxicity assay in Vero cells (resazurin); type: cell-based, African green monkey; conditions: for CC50 at 24 h: African green monkey; for CC50 at 24 h / CC50: Vero cells, brackets: 95% confidence interval, 24 h; for unspecific cytotoxicity towards Vero cells (in words): highest concentration evaluated (300 µM)
[4] = Vero CCL-81 cells (kidney epithelial cells)

SMILES | IC50 ([2]; Trypanosoma cruzi) | CC50 at 72 h (L929 cells) | IC50 (Trichomonas vaginalis; Trichomonas vaginalis, 24 h) | other results
N#CC(C#N)=NNc1cccc(Cl)c1 [CCCP, m-chlorocarbonylcyanide phenylhydrazone, reference compound] |  |  |  | JC-1 fluorescence distribution in trophozoites (fluorescence microscopy) [1]: provokes a disturbance in the hydrogenosome membrane potential
COc1ccc(NC(=S)NN)cc1 [Compound 23] | 53.5 ± 13 µM | > 256 µM | 256 µM | IC50 [3]: 59.9 ± 10.4 µM; CC50 at 48 h (J774 cells): > 256 µM
NNC(=S)Nc1ccc(F)cc1 [Compound 24] | 58.8 ± 8.77 µM | > 256 µM | 200 µM | IC50 [3]: 97.3 ± 3.45 µM; CC50 at 48 h (J774 cells): > 256 µM
NNC(=S)Nc1ccc(Cl)cc1 [Compound 25] | 44.2 ± 13.6 µM | 67.7 ± 3.16 µM | 49.2 µM | CC50 at 24 h (Vero cells; [4]): > 300 µM
NNC(=S)Nc1ccc(I)cc1 [Compound 27] | 49.8 ± 14.2 µM | 51 ± 8.88 µM | 75.7 µM | 
NNC(=S)Nc1ccccc1[N+](=O)[O-] [Compound 28] | 44.1 ± 5.38 µM | 210 ± 15.3 µM | > 300 µM | 
NNC(=S)Nc1cccc([N+](=O)[O-])c1 [Compound 29] | 79.9 ± 15.4 µM | 206 ± 7.25 µM | 19.1 µM | CC50 at 24 h (Vero cells; [4]): > 300 µM
NNC(=S)Nc1ccc([N+](=O)[O-])cc1 [Compound 30] | 72.5 ± 1.23 µM | 23.6 ± 2.84 µM | 106 µM | 
Oc1ccc(/C=N/NC(=S)Nc2ccccc2)cc1 [Compound 36] | 70.9 ± 11 µM | 46.29 ± 0.15 µM | 74 µM | 
COc1ccc(/C=N/NC(=S)Nc2ccccc2)cc1 [Compound 37] |  | > 256 µM | 167 µM | IC50 [3]: 85.1 ± 17.2 µM; CC50 at 48 h (J774 cells): > 256 µM
Oc1ccc(/C=N/NC(=S)Nc2ccccc2)cc1O [Compound 38] | 15.3 ± 2.22 µM | 45.2 ± 0.58 µM | 88.6 µM | 
Cc1ccc(NC(=S)N/N=C/c2ccc(O)cc2)cc1 [Compound 39] | 39.6 ± 7.08 µM | 61 ± 3.72 µM | 66.1 µM | 
COc1ccc(/C=N/NC(=S)Nc2ccc(C)cc2)cc1 [Compound 40] | > 256 µM | > 256 µM | 226 µM | 
Cc1ccc(NC(=S)N/N=C/c2ccc(O)c(O)c2)cc1 [Compound 41] | 119 ± 7.68 µM | 20 ± 1.87 µM | 80.6 µM | 
COc1ccc(NC(=S)N/N=C/c2ccc(O)cc2)cc1 [Compound 42] | 49.2 ± 9.97 µM | 43.3 ± 16.6 µM | 64.8 µM | 
COc1ccc(/C=N/NC(=S)Nc2ccc(F)cc2)cc1 [Compound 44] | > 256 µM | > 256 µM | > 300 µM | 
Oc1ccc(/C=N/NC(=S)Nc2ccc(F)cc2)cc1O [Compound 45] | 97.4 ± 5.33 µM | 30.5 ± 3.93 µM | 226 µM | 
COc1ccc(/C=N/NC(=S)Nc2ccc(Cl)cc2)cc1 [Compound 46] | 30.5 ± 4.1 µM | 49.7 ± 3.76 µM | 32.3 µM | CC50 at 24 h (Vero cells; [4]): > 300 µM
Oc1ccc(/C=N/NC(=S)Nc2ccc(Br)cc2)cc1 [Compound 47] | 42.8 ± 12 µM | 67 ± 5.43 µM | 52.4 µM | 
COc1ccc(/C=N/NC(=S)Nc2ccc(Br)cc2)cc1 [Compound 48] | > 256 µM | > 256 µM | 55.1 µM | 

SMILES | IC50 ([2]; Trypanosoma cruzi) | CC50 at 72 h (L929 cells) | IC50 (Trichomonas vaginalis; Trichomonas vaginalis, 24 h) | other results
Oc1ccc(/C=N/NC(=S)Nc2ccc(Br)cc2)cc1O [Compound 49] | 104 ± 15.7 µM | 16.7 ± 0.7 µM | 11.1 µM | IC50 (Trichomonas vaginalis): 16.4 µM; CC50 at 24 h (Vero cells; [4]): ≥ 275 µM; CC50 (Vero cells): > 300 µM; unspecific cytotoxicity towards Vero cells (in words) (Vero cells): did not exhibit unspecific cytotoxicity
Oc1ccc(/C=N/NC(=S)Nc2ccc(I)cc2)cc1 [Compound 50] | 22.8 ± 1.61 µM | 41.4 ± 8.36 µM | 42.2 µM | CC50 at 24 h (Vero cells; [4]): > 300 µM
COc1ccc(/C=N/NC(=S)Nc2ccc(I)cc2)cc1 [Compound 51] | > 256 µM | > 256 µM | 14.8 µM | IC50 (Trichomonas vaginalis): 14.8 µM; CC50 at 24 h (Vero cells; [4]): ≥ 275 µM; CC50 (Vero cells): > 300 µM; unspecific cytotoxicity towards Vero cells (in words) (Vero cells): did not exhibit unspecific cytotoxicity; JC-1 fluorescence distribution in trophozoites (fluorescence microscopy) [1]: fluorescence restricted to certain regions of the parasite
Oc1ccc(/C=N/NC(=S)Nc2ccc(I)cc2)cc1O [Compound 52] | 69.4 ± 4.73 µM | 20.8 ± 7.92 µM | 24.9 µM | CC50 at 24 h (Vero cells; [4]): > 300 µM
O=[N+]([O-])c1ccccc1NC(=S)N/N=C/c1ccc(O)cc1 [Compound 53] | 21.8 ± 2.98 µM | 34.9 ± 8.65 µM | 92.8 µM | 
COc1ccc(/C=N/NC(=S)Nc2ccccc2[N+](=O)[O-])cc1 [Compound 54] | 210 ± 14.5 µM | > 256 µM | 34.2 µM | CC50 at 24 h (Vero cells; [4]): > 300 µM
O=[N+]([O-])c1ccccc1NC(=S)N/N=C/c1ccc(O)c(O)c1 [Compound 55] | 42 ± 9.06 µM | 21.4 ± 4.12 µM | 133 µM | 
O=[N+]([O-])c1cccc(NC(=S)N/N=C/c2ccc(O)cc2)c1 [Compound 56] | 36.9 ± 3.84 µM | 28.8 ± 3.25 µM | 24.3 µM | CC50 at 24 h (Vero cells; [4]): 169 µM
O=[N+]([O-])c1cccc(NC(=S)N/N=C/c2ccc(O)c(O)c2)c1 [Compound 58] | 33.8 ± 7.59 µM | 12 ± 1.42 µM | 73.4 µM | 
O=[N+]([O-])c1ccc(NC(=S)N/N=C/c2ccc(O)cc2)cc1 [Compound 59] | 76.4 ± 9.91 µM | 29.4 ± 2.52 µM | 36 µM | CC50 at 24 h (Vero cells; [4]): 254 µM
COc1ccc(/C=N/NC(=S)Nc2ccc([N+](=O)[O-])cc2)cc1 [Compound 60] | > 256 µM | > 256 µM | 155 µM | 
O=[N+]([O-])c1ccc(NC(=S)N/N=C/c2ccc(O)c(O)c2)cc1 [Compound 61] | 111 ± 14.8 µM | 5.37 ± 0.3 µM | 128 µM | 
O=[N+]([O-])c1ccc(/C=N/NC(=S)Nc2ccc([N+](=O)[O-])cc2)cc1 [Compound 62] | > 256 µM | 53.5 ± 4.82 µM | 152 µM | 
Oc1ccc(/C=N/NC(=S)Nc2cccc3ccccc23)cc1 [Compound 63] |  |  |  | IC50 [2]: 53.6 ± 11.3 µM; CC50 (L929 cells): 31.1 ± 9.21 µM; IC50 (Trichomonas vaginalis): 14.9 µM; CC50 (Vero cells): 275 µM; JC-1 fluorescence distribution in trophozoites (fluorescence microscopy) [1]: fluorescence restricted to certain regions of the parasite
COc1ccc(/C=N/NC(=S)Nc2cccc3ccccc23)cc1 [Compound 64] |  |  |  | IC50 [2]: > 256 µM; CC50 (L929 cells): > 256 µM; IC50 (Trichomonas vaginalis): 30.5 µM; CC50 (Vero cells): > 300 µM
Oc1ccc(/C=N/NC(=S)Nc2cccc3ccccc23)cc1O [Compound 65] |  |  |  | IC50 [2]: 70.2 ± 6.99 µM; CC50 (L929 cells): 28.8 ± 7.77 µM; IC50 (Trichomonas vaginalis): 20.1 µM; CC50 (Vero cells): 175 µM
Oc1ccc(/C=N/NC(=[Se])Nc2ccc(Br)cc2)cc1O [Compound 74] |  |  | 11.1 µM | CC50 at 24 h (Vero cells): 114 µM
COc1ccc(/C=N/NC(=[Se])Nc2ccc(I)cc2)cc1 [Compound 75] |  |  | 11 µM | unspecific cytotoxicity towards Vero cells (in words) (Vero cells): did not present toxic effects at the maximum concentration tested
Cc1ncc([N+](=O)[O-])n1CCO [Metronidazole, metronidazole, reference compound] |  |  | 2.68 µM | CC50 at 24 h (Vero cells; [4]): > 300 µM; JC-1 fluorescence distribution in trophozoites (fluorescence microscopy) [1]: fluorescence restricted to certain regions of the parasite
